#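 Cultured in 96-well plates, cells were exposed to test compound for 48 hours across five concentrations. GI50: concentration for 50% inhibition of growth. Definition used: TGI = concentration required for complete inhibition of growth.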
# Columns and labels:
# Test in all cases: inhibition of tumour cell growth, NCI panel, 48 h
# UACC-257 melanoma = tested on: UACC-257 melanoma
# M14 melanoma = tested on: M14 melanoma
# NCI/ADR-RES ovarian = tested on: NCI/ADR-RES ovarian
# HCT-116 colon = tested on: HCT-116 colon
# OVCAR-5 ovarian = tested on: OVCAR-5 ovarian
# A498 renal = tested on: A498 renal
# SNB-75 CNS = tested on: SNB-75 CNS
# HCC-2998 colon = tested on: HCC-2998 colon
# SK-MEL-28 melanoma = tested on: SK-MEL-28 melanoma
# OVCAR-8 ovarian = tested on: OVCAR-8 ovarian
# SF-539 CNS = tested on: SF-539 CNS
# SR leukemia = tested on: SR leukemia
# A549 NSCLC = tested on: A549 NSCLC
# NCI-H226 lung = tested on: NCI-H226 lung
# HOP-62 NSCLC = tested on: HOP-62 NSCLC
# COLO 205 colon = tested on: COLO 205 colon
# PC-3 prostate = tested on: PC-3 prostate
# HCT-15 colon = tested on: HCT-15 colon
# SK-MEL-5 melanoma = tested on: SK-MEL-5 melanoma
# MOLT-4 leukemia = tested on: MOLT-4 leukemia
# LOX IMVI melanoma = tested on: LOX IMVI melanoma
# MDA-MB-435 = tested on: MDA-MB-435
# RXF 393 renal = tested on: RXF 393 renal
# OVCAR-4 ovarian = tested on: OVCAR-4 ovarian
# BT-549 breast = tested on: BT-549 breast
# CAKI-1 renal = tested on: CAKI-1 renal
# HOP-92 NSCLC = tested on: HOP-92 NSCLC
# SK-OV-3 ovarian = tested on: SK-OV-3 ovarian
# T-47D breast = tested on: T-47D breast
# SNB-19 CNS = tested on: SNB-19 CNS
# SN12C renal = tested on: SN12C renal
# UACC-62 melanoma = tested on: UACC-62 melanoma
# SF-268 CNS = tested on: SF-268 CNS
# MCF7 breast = tested on: MCF7 breast
# K-562 leukemia = tested on: K-562 leukemia
# 786-0 renal = tested on: 786-0 renal
# HS 578T breast = tested on: HS 578T breast
# NCI-H23 lung = tested on: NCI-H23 lung
# CCRF-CEM leukemia = tested on: CCRF-CEM leukemia
# SW-620 colon = tested on: SW-620 colon
# KM12 colon = tested on: KM12 colon
# SK-MEL-2 melanoma = tested on: SK-MEL-2 melanoma
# RPMI-8226 leukemia = tested on: RPMI-8226 leukemia
# SF-295 CNS = tested on: SF-295 CNS
# HL-60(TB) leukemia = tested on: HL-60(TB) leukemia
# NCI-H460 lung = tested on: NCI-H460 lung
# MALME-3M melanoma = tested on: MALME-3M melanoma
# EKVX NSCLC = tested on: EKVX NSCLC
# DU-145 prostate = tested on: DU-145 prostate
# ACHN renal = tested on: ACHN renal
# TK-10 renal = tested on: TK-10 renal
# HT29 colon = tested on: HT29 colon
# IGROV1 ovarian = tested on: IGROV1 ovarian
# MDA-MB-468 breast = tested on: MDA-MB-468 breast
# U251 CNS = tested on: U251 CNS
# UO-31 renal = tested on: UO-31 renal
# NCI-H522 lung = tested on: NCI-H522 lung
# MDA-MB-231 breast = tested on: MDA-MB-231 breast
smiles,measurement,setting,value
C=C(c1ccc(OC)c(N)c1)c1cc(C)nc2ccccc12,GI50,UACC-257 melanoma,3.98 µM
same,TGI,UACC-257 melanoma,75 µM
same,GI50,M14 melanoma,< 0.01 µM
same,TGI,M14 melanoma,15.2 µM
same,GI50,NCI/ADR-RES ovarian,< 0.01 µM
same,TGI,NCI/ADR-RES ovarian,< 0.01 µM
same,GI50,HCT-116 colon,< 0.01 µM
same,TGI,HCT-116 colon,> 100 µM
same,GI50,OVCAR-5 ovarian,< 0.01 µM
same,TGI,OVCAR-5 ovarian,> 100 µM
same,GI50,A498 renal,36.8 µM
same,TGI,A498 renal,> 100 µM
same,GI50,SNB-75 CNS,< 0.01 µM
same,TGI,SNB-75 CNS,83.7 µM
same,GI50,HCC-2998 colon,< 0.01 µM
same,TGI,HCC-2998 colon,0.466 µM
same,GI50,SK-MEL-28 melanoma,< 0.01 µM
same,TGI,SK-MEL-28 melanoma,98.2 µM
same,GI50,OVCAR-8 ovarian,< 0.01 µM
same,GI50,SF-539 CNS,< 0.01 µM
same,TGI,SF-539 CNS,< 0.01 µM
same,GI50,SR leukemia,< 0.01 µM
same,TGI,SR leukemia,34.6 µM
same,GI50,A549 NSCLC,< 0.01 µM
same,TGI,A549 NSCLC,> 100 µM
same,GI50,NCI-H226 lung,< 0.0115 µM
same,TGI,NCI-H226 lung,> 100 µM
same,GI50,HOP-62 NSCLC,< 0.01 µM
same,TGI,HOP-62 NSCLC,> 100 µM
same,GI50,COLO 205 colon,< 0.01 µM
same,TGI,COLO 205 colon,< 0.01 µM
same,GI50,PC-3 prostate,< 0.01 µM
same,TGI,PC-3 prostate,> 100 µM
same,GI50,HCT-15 colon,< 0.01 µM
same,GI50,SK-MEL-5 melanoma,< 0.01 µM
same,TGI,SK-MEL-5 melanoma,< 0.01 µM
same,GI50,MOLT-4 leukemia,< 0.01 µM
same,TGI,MOLT-4 leukemia,26.6 µM
same,GI50,LOX IMVI melanoma,< 0.01 µM
same,TGI,LOX IMVI melanoma,27.4 µM
same,GI50,MDA-MB-435,< 0.01 µM
same,TGI,MDA-MB-435,0.118 µM
same,GI50,RXF 393 renal,< 0.01 µM
same,TGI,RXF 393 renal,79 µM
same,GI50,OVCAR-4 ovarian,7.41 µM
same,TGI,OVCAR-4 ovarian,> 100 µM
same,GI50,BT-549 breast,< 0.01 µM
same,GI50,CAKI-1 renal,< 0.01 µM
same,TGI,CAKI-1 renal,> 96.2 µM
same,GI50,HOP-92 NSCLC,0.18 µM
same,TGI,HOP-92 NSCLC,43 µM
same,GI50,SK-OV-3 ovarian,< 0.01 µM
same,GI50,T-47D breast,12.6 µM
same,TGI,T-47D breast,> 100 µM
same,GI50,SNB-19 CNS,< 0.01 µM
same,TGI,SNB-19 CNS,> 100 µM
same,GI50,SN12C renal,< 0.01 µM
same,TGI,SN12C renal,> 44.9 µM
same,GI50,UACC-62 melanoma,< 0.01 µM
same,TGI,UACC-62 melanoma,22.4 µM
same,GI50,SF-268 CNS,< 0.01 µM
same,TGI,SF-268 CNS,37.4 µM
same,GI50,MCF7 breast,< 0.01 µM
same,TGI,MCF7 breast,> 37.1 µM
same,GI50,K-562 leukemia,< 0.01 µM
same,TGI,K-562 leukemia,> 93 µM
same,GI50,786-0 renal,< 0.01 µM
same,TGI,786-0 renal,> 100 µM
same,GI50,HS 578T breast,< 0.01 µM
same,TGI,HS 578T breast,> 100 µM
same,GI50,NCI-H23 lung,< 0.01 µM
same,TGI,NCI-H23 lung,36.1 µM
same,GI50,CCRF-CEM leukemia,< 0.01 µM
same,GI50,SW-620 colon,< 0.01 µM
same,TGI,SW-620 colon,> 100 µM
same,GI50,KM12 colon,< 0.01 µM
same,TGI,KM12 colon,11.5 µM
same,GI50,SK-MEL-2 melanoma,< 0.01 µM
same,TGI,SK-MEL-2 melanoma,< 0.01 µM
same,GI50,RPMI-8226 leukemia,< 0.01 µM
same,TGI,RPMI-8226 leukemia,21.3 µM
same,GI50,SF-295 CNS,< 0.01 µM
same,GI50,HL-60(TB) leukemia,< 0.01 µM
same,TGI,HL-60(TB) leukemia,< 0.01 µM
same,GI50,NCI-H460 lung,< 0.01 µM
same,TGI,NCI-H460 lung,> 32 µM
same,GI50,MALME-3M melanoma,< 0.01 µM
same,TGI,MALME-3M melanoma,31.6 µM
same,GI50,EKVX NSCLC,< 0.01 µM
same,TGI,EKVX NSCLC,> 51.6 µM
same,GI50,DU-145 prostate,< 0.01 µM
same,TGI,DU-145 prostate,> 100 µM
same,GI50,ACHN renal,< 0.01 µM
same,TGI,ACHN renal,61.9 µM
same,GI50,TK-10 renal,18.7 µM
same,TGI,TK-10 renal,> 100 µM
same,GI50,HT29 colon,< 0.01 µM
same,TGI,HT29 colon,< 0.01 µM
same,GI50,IGROV1 ovarian,< 0.01 µM
same,TGI,IGROV1 ovarian,> 100 µM
same,GI50,MDA-MB-468 breast,< 0.01 µM
same,TGI,MDA-MB-468 breast,76.3 µM
same,GI50,U251 CNS,< 0.01 µM
same,TGI,U251 CNS,> 100 µM
same,GI50,UO-31 renal,< 0.01 µM
same,TGI,UO-31 renal,64.6 µM
same,GI50,NCI-H522 lung,< 0.01 µM
same,TGI,NCI-H522 lung,< 0.01 µM
same,GI50,MDA-MB-231 breast,< 0.01 µM
same,TGI,MDA-MB-231 breast,< 0.01 µM

# Reference: PubChem BioAssay (NCI)
